The results in this text go back to patent US4508719A, “Hydroxyimino and alkoxyimino derivatives of 1,4-dihydropyridine and anti-hypertensive compositions” (Pierrel S.p.A., priority 1982, dated 1985).

A word on the LD50: it is the dose at which mortality reaches 50%. High values mean a less toxic substance, low ones a more toxic substance.

Like-named read-outs stand apart in the source and are kept apart here. Where only a bound is given, the exact number is not on record here.

Data set [1] concerns taenia coli of guinea pigs, depolarized, stimulated with CaCl2. Kind of data set: Antagonistic activity to calcium in the taenia coli of guinea pigs (in vitro). It counts as cell-based, Hartley albino guinea pigs. The following applies: for IC50: Cavia porcellus, read-out: Ca--antagonistic activity in vitro ED50. How it is done: Hartley albino guinea pigs of average weight 450 g are used. […] The compounds are allowed to stand in contact with the preparation for ten minutes. The activities ED50 are calculated from the maximum percentage of inhibition.

A further data set is described as follows: in vivo. The following applies: mouse, iv. Here is the method: Male CD1 mice from Charles River, weighing 25 g, are used. Compounds are administered intravenously (i.v.), dissolved in dimethylsulfoxide, and the volume of administration is 0.01 ml/10 g of body weight. The lethal dose, LD50 after seven days, is calculated according to the method of Litchfield and Wilcoxon (Exp. Ther. 96, 99 (1949)).

Setting [2] is: taenia coli, CaCl2 10^-3 M, ten minutes contact, from maximum percentage of inhibition (for 0265B, 0246B, 0247B, 0270B, 0224A independent of time of appearance).

As for `COC(=O)C1=C(C)NC(C)=C(C(C)=NOCCN(C)Cc2ccccc2)C1c1cccc([N+](=O)[O-])c1` (centres unmarked) [0224A, Methyl 2,6-dimethyl-3-[1-(2-N-benzyl-N-methylamino)ethoxy-imino]ethyl-4-(3-nitrophenyl)-1,4-dihydropyridin-5-carboxylate], the IC50 in data set [1] (setting [2]) turned out to be 18 nM. Besides, the “inhibition of contractions due to CaCl2 after repeated washing of the tissue” value (“inhibition of contractions due to CaCl2” below) in data set [1] (taenia coli) is “increases progressively in spite of repeated washing of the tissue”. The compound also gave a 50% lethal dose (LD50) at 168 h in the data set “in vivo” of 3.3 mg/kg.
On to `COC(=O)C1=C(C)NC(C)=C(C(C)=NO)C1c1cccc([N+](=O)[O-])c1` (centres unmarked) [0227A, Methyl 2,6-dimethyl-3-(1-hydroxyimino)ethyl-4-(3-nitrophenyl)-1,4-dihydropyridine-5-carboxylate], for which the IC50 in data set [1] (setting [2]) was found to be 270 nM. In “in vivo”, this compound came in with a median lethal dose (LD50) at 168 h of 15.2 mg/kg.
The matching figures for `CCOC(=O)CON=C(C)C1=C(C)NC(C)=C(C(=O)OC)C1c1cccc([N+](=O)[O-])c1` (centres unmarked) [0234A, Methyl 2,6-dimethyl-3-[1-(ethoxycarbonyl)methoxyimino]ethyl-4-(3-nitrophenyl)-1,4-dihydro-pyridin-5-carboxylate]: 29 nM and 17.3 mg/kg.
The matching figures for `CCON=C(C)C1=C(C)NC(C)=C(C(=O)OC)C1c1cccc([N+](=O)[O-])c1` (centres unmarked) [0235A, Methyl 2,6-dimethyl-3-(1-ethoxyimino)ethyl-4-(3-nitrophenyl)-1,4-dihydropyridin-5-carboxylate]: 7.4 nM and 30.6 mg/kg.
For `C=CCON=C(C)C1=C(C)NC(C)=C(C(=O)OC)C1c1cccc([N+](=O)[O-])c1` (centres unmarked) [0245B], in that order: 4.7 nM and 35.4 mg/kg.
With `CCCCON=C(C)C1=C(C)NC(C)=C(C(=O)OC)C1c1cccc([N+](=O)[O-])c1` (centres unmarked) [0246B], in data set [1] (setting [2]), the IC50 was 7 nM. Further, the “inhibition of contractions due to CaCl2” value in data set [1] (taenia coli) is “increases progressively in spite of repeated washing of the tissue”. For the same compound, the median lethal dose (LD50) at 168 h in “in vivo” was 37.5 mg/kg.
The matching figures for `COC(=O)C1=C(C)NC(C)=C(C(C)=NOCc2ccccc2)C1c1cccc([N+](=O)[O-])c1` (centres unmarked) [0247B]: 4.8 nM, “increases progressively in spite of repeated washing of the tissue” and 28.9 mg/kg.
As to `CON=C(C)C1=C(C)NC(C)=C(C(=O)OC)C1c1cccc([N+](=O)[O-])c1` (centres unmarked) [0251A, Methyl 2,6-dimethyl-3-(1-methoxyimino)ethyl-4-(3-nitrophenyl)-1,4-dihydropyridin-5-carboxylate], the IC50 in data set [1] (setting [2]) amounted to 26 nM. This compound also returned a 50% lethal dose (LD50) at 168 h in the data set “in vivo” of 27.3 mg/kg.
The matching figures for `CCOCCON=C(C)C1=C(C)NC(C)=C(C(=O)OC)C1c1cccc([N+](=O)[O-])c1` (centres unmarked) [0254B]: 5.9 nM and 35 mg/kg.
Take `COC(=O)C1=C(C)NC(C)=C(C(C)=NOC(C)C)C1c1cccc([N+](=O)[O-])c1` (centres unmarked) [0265B]: the IC50 in data set [1] (setting [2]) is 4.4 nM. Further, the “inhibition of contractions due to CaCl2” value in data set [1] (taenia coli) is “increases progressively in spite of repeated washing of the tissue”. Further, the LD50 at 168 h in “in vivo” was found to be 27.6 mg/kg.
For `COC(=O)C1=C(C)NC(C)=C(C(C)=NOC2CCCC2)C1c1cccc([N+](=O)[O-])c1` (centres unmarked) [0270B], the IC50 in data set [1] (setting [2]) stood at 5.6 nM. Besides, the “inhibition of contractions due to CaCl2” value in data set [1] (taenia coli) is “increases progressively in spite of repeated washing of the tissue”. Moreover, in “in vivo”, the LD50 at 168 h is 70.3 mg/kg.
Regarding `COC(=O)C1=C(C)NC(C)=C(C(C)=NOCCN(C)C)C1c1cccc([N+](=O)[O-])c1` (centres unmarked) [0274B], in data set [1] (setting [2]), the IC50 turned out to be 510 nM. Moreover, the 50% lethal dose (LD50) at 168 h in “in vivo” was determined as 38.3 mg/kg.
Turning to `COC(=O)C1=C(C)NC(C)=C(C(C)=NOCCN2CCCCC2)C1c1cccc([N+](=O)[O-])c1` (centres unmarked) [0276B], the IC50 in data set [1] (setting [2]) amounted to 220 nM. This compound returned an LD50 at 168 h in the data set “in vivo” of 22.7 mg/kg.
For `CCOCCON=C(COC)C1=C(C)NC(C)=C(C(=O)OC)C1c1cccc([N+](=O)[O-])c1` (centres unmarked) [0286C], in that order: 370 nM and more than 160 mg/kg.
For `COC(=O)C1=C(C)NC(C)=C(C(=O)OCCN(C)Cc2ccccc2)C1c1cccc([N+](=O)[O-])c1` (centres unmarked) [Nicardipine, reference compound], in that order: 2.3 nM and 17.4 mg/kg.
`COC(=O)C1=C(C)NC(C)=C(C(=O)OC)C1c1ccccc1[N+](=O)[O-]` [Nifedipine, reference compound]: the IC50 in data set [1] is 2.6 nM.
Turning to `CCOC(=O)C1=C(C)NC(C)=C(C(=O)OC)C1c1cccc([N+](=O)[O-])c1` (centres unmarked) [Nitrendipine, reference compound], the IC50 in data set [1] (setting [2]) was determined as 1.9 nM. This compound also yielded an LD50 at 168 h in “in vivo” of 34.5 mg/kg.
